Counter-ions that a name gives are not always drawn.
Molecular target: T1, Nav1.7 (or SCN9A) channel (Homo sapiens, UniProt Q15858)
T1 construct: expressed in transfected cells
Test: Nav1.7 (hSCN9A) block, whole-cell electrophysiology on the PatchXpress platform
Assay type: cell-based
Conditions: estimated IC50 from single point electrophysiology data, HEK cells stably expressing hSCN9A, prepulse to V1/2, read-out: Nav1.7 EIC50
Protocol: The ability of the compounds of formula (I) to block the Nav1.7 (or SCN9A) channel were measured using the assay described below.
Human Embryonic Kidney (HEK) cells were transfected with an hSCN9A construct using lipofectamine reagent (Invitrogen), using standard techniques. Cells stably expressing the hSCN9A constructs were identified by their resistance to G-418 (400 μg/ml). Clones were screened for expression using the whole-cell voltage-clamp technique.
HEK cells stably transfected with hSCN9A were maintained in DMEM medium supplemented with 10% heat-inactivated fetal bovine serum and 400 μg/ml G-418 in an incubator at 37° C. with a humidified atmosphere of 10% CO2. For HTS, cells were harvested from flasks by trypsinization and replated in an appropriate multi-well plate (typically 96 or 384 wells/plate) such that confluence would be achieved within 24 hours of plating. For electrophysiological studies, cells were removed from the culture flask by brief trypsinization and re-plated at low density onto glass cover slips. Cells were typically used for electrophysiological experiments within 24 to 72 hours after plating.
Cover slips containing HEK cells expressing hSCN9A were placed in a bath on the stage of an inverted microscope and perfused (approximately 1 ml/minutes) with extracellular solution of the following composition: 138 mM NaCl, 2 mM CaCl2, 5.4 mM KCl, 1 mM MgCl2, 10 mM glucose, and 10 mM HEPES, pH 7.4, with NaOH. […] The osmolarity of the extracellular and intracellular solutions was 300 mOsm/kg and 295 mOsm/kg, respectively. All recordings were made at room temperature (22-24° C.) using AXOPATCH 200B amplifiers and PCLAMP software (Axon Instruments, Burlingame, Calif.).
hSCN9A currents in HEK cells were measured using the whole-cell configuration of the patch-clamp technique (Hamill et al., 1981). Uncompensated series resistance was typically 2 to 5 mega ohms and >85% series resistance compensation was routinely achieved. As a result, voltage errors were negligible and no correction was applied. Current records were acquired at 20 to 50 KHz and filtered at 5 to 10 KHz.
HEK cells stably transfected with hSCN9A were viewed under Hoffman contrast optics and placed in front of an array of flow pipes emitting either control or compound-containing extracellular solutions. All compounds were dissolved in dimethyl sulfoxide to make 10 mM stock solutions, which were then diluted into extracellular solution to attain the final concentrations desired. […] The voltage-dependence of inactivation was determined by applying a series of depolarizing prepulses (8 sec long in 10 mV increments) from a negative holding potential. The voltage was then immediately stepped to 0 mV to assess the magnitude of the sodium current. Currents elicited at 0 mV were plotted as a function of prepulse potential to allow estimation of the voltage at which 50% of the channels were inactivated (midpoint of inactivation or V1/2). Compounds were tested for their ability to inhibit hSCN9A sodium channels by activating the channel with a 20 msec voltage step to 0 mV following an 8 second conditioning prepulse to the empirically determined V1/2. Compound effect (% inhibition) was determined by difference in current amplitude before and after application of test compounds. For ease of comparison, “estimated IC-50” (EIC50) values were calculated from single point electrophysiology data by the following equation, (tested concentration, uM)×(100−% inhibition/% inhibition). Inhibition values <20% and >80% were excluded from the calculation.
Electrophysiological assays were conducted with PatchXpress 7000 hardware and associated software (Molecular Devices Corp). All assay buffers and solutions were identical to those used in conventional whole-cell voltage clamp experiments described above. hSCN9A cells were grown as above to 50%-80% confluency and harvested by trypsinization. […]

T1 sequence (Q15858 whole entry): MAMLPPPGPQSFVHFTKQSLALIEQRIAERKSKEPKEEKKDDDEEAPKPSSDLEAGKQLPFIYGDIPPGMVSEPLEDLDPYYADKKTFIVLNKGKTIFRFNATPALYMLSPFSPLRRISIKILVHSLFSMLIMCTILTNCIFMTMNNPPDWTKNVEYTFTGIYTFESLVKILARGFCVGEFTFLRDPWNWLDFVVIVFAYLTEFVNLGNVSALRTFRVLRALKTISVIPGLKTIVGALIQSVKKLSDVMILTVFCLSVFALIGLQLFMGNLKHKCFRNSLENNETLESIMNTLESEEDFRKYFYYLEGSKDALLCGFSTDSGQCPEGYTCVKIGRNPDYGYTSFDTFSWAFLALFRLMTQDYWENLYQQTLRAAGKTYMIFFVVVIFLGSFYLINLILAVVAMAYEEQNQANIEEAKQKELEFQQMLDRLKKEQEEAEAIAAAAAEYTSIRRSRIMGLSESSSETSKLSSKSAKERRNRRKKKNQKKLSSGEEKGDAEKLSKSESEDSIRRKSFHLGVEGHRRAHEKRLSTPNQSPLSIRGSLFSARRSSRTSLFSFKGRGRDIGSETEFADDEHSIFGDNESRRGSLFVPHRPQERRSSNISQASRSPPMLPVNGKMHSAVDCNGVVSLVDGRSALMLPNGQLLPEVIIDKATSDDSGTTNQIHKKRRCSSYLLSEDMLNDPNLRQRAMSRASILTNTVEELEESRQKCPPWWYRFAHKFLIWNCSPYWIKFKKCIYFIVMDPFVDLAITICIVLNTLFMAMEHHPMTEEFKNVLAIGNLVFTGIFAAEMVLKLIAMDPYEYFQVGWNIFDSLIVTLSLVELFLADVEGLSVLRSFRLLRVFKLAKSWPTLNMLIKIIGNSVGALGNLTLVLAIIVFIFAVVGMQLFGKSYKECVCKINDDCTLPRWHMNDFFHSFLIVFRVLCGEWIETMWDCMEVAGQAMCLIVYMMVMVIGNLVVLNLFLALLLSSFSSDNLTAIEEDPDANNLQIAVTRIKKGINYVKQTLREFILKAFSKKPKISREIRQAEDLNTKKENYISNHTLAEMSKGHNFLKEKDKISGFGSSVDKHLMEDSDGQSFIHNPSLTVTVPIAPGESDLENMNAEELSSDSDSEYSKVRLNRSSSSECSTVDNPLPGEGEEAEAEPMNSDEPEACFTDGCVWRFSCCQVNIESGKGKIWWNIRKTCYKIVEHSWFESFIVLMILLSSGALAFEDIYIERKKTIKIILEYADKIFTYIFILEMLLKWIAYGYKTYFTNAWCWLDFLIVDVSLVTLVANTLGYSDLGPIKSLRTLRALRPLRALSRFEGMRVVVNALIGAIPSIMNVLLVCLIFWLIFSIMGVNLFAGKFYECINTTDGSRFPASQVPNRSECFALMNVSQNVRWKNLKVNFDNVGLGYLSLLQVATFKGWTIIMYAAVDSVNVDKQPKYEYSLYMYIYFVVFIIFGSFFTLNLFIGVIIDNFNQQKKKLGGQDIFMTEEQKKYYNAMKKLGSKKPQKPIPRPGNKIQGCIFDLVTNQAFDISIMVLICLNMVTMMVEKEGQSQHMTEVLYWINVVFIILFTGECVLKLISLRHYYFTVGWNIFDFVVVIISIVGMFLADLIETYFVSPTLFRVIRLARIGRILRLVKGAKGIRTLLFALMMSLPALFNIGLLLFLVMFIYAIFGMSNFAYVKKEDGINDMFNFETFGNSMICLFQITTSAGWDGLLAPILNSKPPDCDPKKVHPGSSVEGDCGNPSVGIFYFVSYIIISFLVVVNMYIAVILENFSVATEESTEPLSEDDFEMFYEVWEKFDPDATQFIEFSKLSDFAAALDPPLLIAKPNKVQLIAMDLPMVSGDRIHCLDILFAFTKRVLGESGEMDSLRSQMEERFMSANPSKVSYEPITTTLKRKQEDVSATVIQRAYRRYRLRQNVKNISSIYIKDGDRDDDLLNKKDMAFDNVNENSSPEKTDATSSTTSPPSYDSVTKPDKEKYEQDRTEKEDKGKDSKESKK

Compound	IC50 [nM]
CC(C)Oc1ncc(OCc2cc(F)c(C(=O)NS(=O)(=O)N(C)C)cc2F)cc1Cl [Example 1, 4-{[(5-Chloro-6-isopropoxypyridin-3-yl)oxy]methyl}-N-[(dimethylamino)sulfonyl]-2,5-difluorobenzamide]	240
CN(C)S(=O)(=O)NC(=O)c1cc(F)c(COc2ccc(C(F)(F)F)c(Cl)c2)cc1F [Example 2, 4-{[3-Chloro-4-(trifluoromethyl)phenoxy]methyl}-N-[(dimethylamino)sulfonyl]-2,5-difluorobenzamide]	110
CN(C)S(=O)(=O)NC(=O)c1cc(F)c(OCc2ccc(Cl)c(Cl)c2)cc1F [Example 3, 4-[(3,4-Dichlorobenzyl)oxy]-N-[(dimethylamino)sulfonyl]-2,5-difluorobenzamide]	1300
CN(C)S(=O)(=O)NC(=O)c1ccc(COc2ccc(Cl)c(C(F)(F)F)c2)cc1 [Example 4, 4-{[4-chloro-3-(trifluoromethyl)phenoxy]methyl}-N-[(dimethylamino)sulfonyl]benzamide]	1500
CN(C)S(=O)(=O)NC(=O)c1ccc(COc2ccc(C(F)(F)F)c(Cl)c2)cc1 [Example 5, 4-{[3-chloro-4-(trifluoromethyl)phenoxy]methyl}-N-[(dimethylamino)sulfonyl]benzamide]	920
CN(C)S(=O)(=O)NC(=O)c1cc(F)c(COc2ccc(Cl)c(C(F)(F)F)c2)cc1F [Example 6, 4-{[4-chloro-3-(trifluoromethyl)phenoxy]methyl}-N-[(dimethylamino)sulfonyl]-2,5-difluorobenzamide]	200
CC(C)Oc1ncc(COc2cc(F)c(C(=O)NS(=O)(=O)N(C)C)cc2F)cc1Cl [Example 7, 4-[(5-chloro-6-isopropoxypyridin-3-yl)methoxy]-N-[(dimethylamino)sulfonyl]-2,5-difluorobenzamide]	8300
CN(C)S(=O)(=O)NC(=O)c1cc(F)c(COc2ccc(Cl)c(F)c2)cc1F [Example 8, 4-[(4-chloro-3-fluorophenoxy)methyl]-N-[(dimethylamino)sulfonyl]-2,5-difluorobenzamide]	850
CN(C)S(=O)(=O)NC(=O)c1cc(F)c(COc2ccc(C#N)c(Cl)c2)cc1F [Example 9, 4-[(3-chloro-4-cyanophenoxy)methyl]-N-[(dimethylamino)sulfonyl]-2,5-difluorobenzamide]	> 3000
O=C(NS(=O)(=O)N1CCC1)c1cc(Cl)c(COc2cnc(C3CC3)c(Cl)c2)cc1F [Example 15, N-(azetidin-1-ylsulfonyl)-5-chloro-4-{[(5-chloro-6-cyclopropylpyridin-3-yl)oxy]methyl}-2-fluorobenzamide]	90

Other lines, results leading:

IC50 [nM]	Compound
350	CN(C)S(=O)(=O)NC(=O)c1cc(F)c(COc2ccc(Cl)c(Cl)c2)cc1F [Example 10, 4-[(3,4-dichlorophenoxy)methyl]-N-[(dimethylamino)sulfonyl]-2,5-difluorobenzamide]
580	CN(C)S(=O)(=O)NC(=O)c1cc(F)c(COc2ccc(F)c(Cl)c2)cc1F [Example 11, 4-[(3-chloro-4-fluorophenoxy)methyl]-N-[(dimethylamino)sulfonyl]-2,5-difluorobenzamide]
2300	CN(C)S(=O)(=O)NC(=O)c1ccc(OCc2ccc(Cl)c(Cl)c2)cc1 [Example 12, 4-[(3,4-dichlorobenzyl)oxy]-N-[(dimethylamino)sulfonyl]benzamide]
150	CC(C)Oc1ncc(OCc2cc(F)c(C(=O)NS(=O)(=O)N3CCC3)cc2F)cc1Cl [Example 13, N-(azetidin-1-ylsulfonyl)-4-{[(5-chloro-6-isopropoxypyridin-3-yl)oxy]methyl}-2,5-difluorobenzamide]
420	CN(C)S(=O)(=O)NC(=O)c1cc(Cl)c(COc2cnc(C3CC3)c(Cl)c2)cc1F [Example 14, 5-chloro-4-{[(5-chloro-6-cyclopropylpyridin-3-yl)oxyl]methyl}-N-[(dimethylamino)sulfonyl]-2-fluorobenzamide diethylamine salt]
270	O=C(NS(=O)(=O)N1CC(F)(F)C1)c1cc(Cl)c(COc2cnc(C3CC3)c(Cl)c2)cc1F [Example 16, 5-chloro-4-{[(5-chloro-6-cyclopropylpyridin-3-yl)oxy]methyl}-N-[(3,3-difluoroazetidin-1-yl)sulfonyl]-2-fluorobenzamide]

Reference: patent US9085517B2, “Sulfonamide derivatives” (Pfizer Limited, priority 2011, dated 2015)
